# Assay results published in article PMC11864979, “First-in-class ultralong-target-residence-time p38α inhibitors as a mitosis-targeted therapy for colorectal cancer” (Nature Cancer, 2025).
# “And” between values parts separate entries of the source, which are not always exact repeats. Identical values can stand only once.
# Tests used:
# PDO4 = assay: cell viability in patient-derived CRC organoids PDO4; type: cell-based, human; settings: Fig. 3e, replicates
# Procedure: (§1) For in vitro treatment studies, organoids were mechanically dissociated and digested using TrypLE supplemented with 100 µg ml^−1 DNaseI and 10.5 µM Y-27632 dihydrochloride (Invitrogen) at 37 °C. A total of 1,000–2,000 single cells were plated per well in white 96-well plates (Greiner) in culture medium containing 10% GFR Matrigel or Cultrex BME. The treatment with doxycycline (5 µg ml^−1), pharmacological inhibitors or corresponding volumes of DMSO was started 24 h after plating. Doxycycline was obtained from Sigma-Aldrich. […] Cell viability was measured by means of CellTiter-Glo 3D or CellTiter-Glo 2.0 reagent (Promega) according to the manufacturers’ instructions and the Infinite M Plex reader (Tecan, i-control version 3.9.1 software). Results were normalized to vehicle (DMSO) or to shNC. For cell-doubling assays, the cell number was quantified at the corresponding time points using Guava EasyCyte flow cytometer (Luminex, CytoSoft v5.2 software).
# PDO1 = assay: cell viability in patient-derived CRC organoids PDO1; type: cell-based, human; settings: Fig. 3b, replicates
# Procedure: as §1
# KMP organoids = assay: cell viability in KMP organoids; type: cell-based, mouse; settings: for therapeutic effect in KMP organoids (in words): 4 days
# Procedure: (§2) A total of 1,000–2,000 single cells were plated per well in white 96-well plates (Greiner) in culture medium containing 10% GFR Matrigel or Cultrex BME. The treatment with doxycycline (5 µg ml^−1), pharmacological inhibitors or corresponding volumes of DMSO was started 24 h after plating. Doxycycline was obtained from Sigma-Aldrich. […] Results were normalized to vehicle (DMSO) or to shNC. For cell-doubling assays, the cell number was quantified at the corresponding time points using Guava EasyCyte flow cytometer (Luminex, CytoSoft v5.2 software).
# BAP organoids = assay: cell viability in BAP organoids; type: cell-based, mouse; settings: for therapeutic effect in BAP organoids (in words): 4 days
# Procedure: as §2
# [1] = system: KAP-shMapk14 and KAP-shNC organoids; assay: cell viability in KAP-shMapk14 and KAP-shNC organoids treated with doxycycline and 2015; type: cell-based, mouse; design: Cell viability (%): concentration or dose not given beside the values; settings: for Cell viability (%): individual replicates, relative to shNC + DMSO
# Procedure: To produce retroviral particles, Phoenix packaging cells were transfected with retroviral DNA (pRT3GEPIR and pR-BRAF^V600E-Puro) through calcium phosphate transfection. The viral supernatant, supplemented with polybrene (5 µg ml^−1) was applied on cells or dissociated organoids and the infected cultures were selected with puromycin (3 µg ml^−1). Expression of shRNAs and GFP was induced with 5 µg ml^−1 doxycycline (Sigma).
# as §1
# [2] = histological evaluation of small intestine, colon and liver of treated mice; type: in vivo, mouse
# Procedure: Histopathological evaluation of colorectal tumors and healthy tissues was performed by experienced pathologists (S.S. for murine or human tumors and tissues; G.O. for human tumors). Hematoxylin and eosin (H&E) staining was performed on paraffin-embedded sections using 0.5% eosin and 0.5% hematoxylin.
# [3] = weight development of treated mice; type: in vivo, mouse
# Procedure: No mice were excluded during treatment studies. […] GFP imaging of tumors was performed using a Hamamatsu imaging system. For quantification of compounds in the murine plasma, 20 μl of tail-vein blood was diluted with 80 μl of heparin solution, before 200 μl of ice-cold acetonitrile with a defined internal standard was added. The samples were sonicated and centrifuged and the supernatant was subjected to liquid chromatography-mass spectrometry quantification. Full blood analyses were performed with the Sysmex KX-21N hematology analyzer.
# KMP liver metastasis = assay: survival of mice with KMP liver metastasis; type: in vivo, mouse
# Procedure: Subcutaneous injection, splenic seeding or cecum injection of organoids was performed in 8–10-week-old C57BL/6 N/Crl, Rag2^−/− (B6.Cg-Rag2^tm1.1Cgn/J), or CB17 Scid beige (CB17.Cg-Prkdc^scidLyst^bg-J/Crl) mice, obtained from Charles River. The organoids were dissociated into single cells, washed with PBS and injected in a 1:1 mixture of PBS and Matrigel. For murine organoids, 1 × 10^5 cells were injected into the left and right flanks or the spleen capsule and 2 × 10^6 cells were injected into the cecum wall. For human organoids, 4 × 10^5 cells were injected into the flanks of CB17 Scid beige mice. For splenic seeding and cecum injection, mice were anaesthetized using ketamine (100 mg kg^−1, intraperitoneally) and xylazin (10 mg/kg, intraperitoneally) in NaCl and a small laparotomy below the thorax was performed.
# [4] = cell viability after 2015, Navitoclax or 2015 + Navitoclax (Fig. 5f); type: cell-based; design: concentration or dose not given beside the values; settings: replicates
# KAP^2D cells = assay: cell size and DNA content analysis in KAP^2D cells (flow cytometry); type: cell-based, mouse; settings: 1 µM, 1 day
# Procedure: For DNA content analysis, cells were fixed with ethanol, washed and resuspended in PBS containing 50 µg ml^−1 propidium iodide (Invitrogen) and 250 µg ml^−1 RNase A (Qiagen). Apoptosis was analyzed with the FITC annexin V apoptosis detection kit (Biolegend). Both measurements were performed with FACS Canto II (BD) and physical parameters were used to exclude cell debris and cell doublets.
# [5] = Fig. 2i, 0,5 µM, replicates, 5 µM
# [6] = Mus musculus, Fig. 2i, 1 µM, replicates
# [7] = Fig. 2j, 0,5 µM, replicates, 5 µM
structure (smiles),measurement,setting,value
O=C(NCCN1CCOCC1)c1ccc2c(c1)C(=O)c1ccc(Nc3ccc(F)c(NC(=O)c4ccccc4)c3)cc1CC2 [Compound 1639],Cell viability (%),"PDO4; 0,5 µM, 5 µM",53.06% and 53.55%
same,Cell viability (%),"PDO4; 0,25 µM, 25 µM",68.57% and 69.02%
same,Cell viability (%),PDO4; 1 µM,67.76% and 68.24%
same,viability at 5 µM,"PDO4; Homo sapiens, 0,5 µM",50.2%
same,viability at 25 µM,"PDO4; Homo sapiens, 0,25 µM",67.4%
same,viability at 1 µM,"PDO4; Homo sapiens, 1 µM",66.9%
same,Cell viability (%),PDO1; 0.5 µM,106.52% and 84.18% and 86.35%
same,Cell viability (%),PDO1; 1 µM,70.08% and 65.69%
same,viability at 1 µM,"PDO1; Homo sapiens, 1 µM",63%
same,therapeutic effect in KMP organoids (in words),KMP organoids,no therapeutic effects
same,Cell viability (%),KMP organoids; [5],101.57% and 92.29%
same,Cell viability (%),"KMP organoids; Fig. 2i, 0,25 µM, replicates",98.98% and 85.31% and 57.91%
same,Cell viability (%),"KMP organoids; Fig. 2i, 1 µM, replicates",98.40% and 93.50%
same,viability at 5 µM,"KMP organoids; Mus musculus, Fig. 2i, 0,5 µM, replicates",85.5%
same,viability at 1 µM,KMP organoids; [6],105%
same,therapeutic effect in BAP organoids (in words),BAP organoids,no therapeutic effects
same,Cell viability (%),BAP organoids; [7],89.71% and 139.45% and 151.95%
same,Cell viability (%),"BAP organoids; Fig. 2j, 0,25 µM, replicates",99.59% and 127.60% and 118.40%
same,Cell viability (%),"BAP organoids; Fig. 2j, 1 µM, replicates",87.55% and 125.47% and 95.41%
CNC(=O)c1ccc2c(c1)C(=O)c1ccc(Nc3ccc(F)c(NC(=O)C4CC4)c3)cc1CC2 [Compound 2015],Cell viability (%),"PDO4; 0,5 µM, 5 µM",13.84% and 14.01%
same,Cell viability (%),"PDO4; 0,25 µM, 25 µM",62.38% and 62.93%
same,Cell viability (%),PDO4; 1 µM,11.63% and 11.83%
same,viability at 25 µM,"PDO4; Homo sapiens, 0,25 µM",60%
same,viability at 1 µM,"PDO4; Homo sapiens, 1 µM",11.2%
same,Cell viability (%),PDO1; 0.5 µM,8.84% and 9.77%
same,Cell viability (%),PDO1; 1 µM,9.82% and 5.19%
same,viability at 0.5 µM,"PDO1; Homo sapiens, 0.5 µM",10.1%
same,viability at 1 µM,"PDO1; Homo sapiens, 1 µM",7.92%
same,response of KAP-shMapk14.2605 organoids (in words),[1]; doxycycline-induced Mapk14-shRNA expression,did not respond
same,Cell viability (%),[1]; shMapk14.2605 + 2015,22.20% and 48.13% and 45.94%
same,Cell viability (%),[1]; shNC + 2015,31.98% and 25.43% and 20.36%
same,intestinal epithelium (in words),[2]; 4 days or 10 weeks daily treatment,did not influence the regeneration of intestinal epithelium
same,liver damage (in words),[2]; short-term and long-term treatment,no signs for liver damage
same,Weight development (%),[3]; day 12,100.0% and 97.9% and 100.9% and 99.3% and 97.1%
same,Weight development (%),[3]; day 14,100.9% and 97.9% and 97.4% and 99.6% and 101.1% and 98.2% and 100.0%
same,Weight development (%),[3]; day 16,102.6% and 98.7% and 97.0% and 100.9% and 101.1% and 99.3%
same,Weight development (%),[3]; day 18,103.8% and 98.7% and 97.4% and 101.3% and 100.7% and 100.0% and 101.8%
same,Weight development (%),[3]; day 20,102.6% and 98.7% and 97.9% and 101.3% and 100.4% and 100.0%
same,Weight development (%),[3]; day 22,106.4% and 100.4% and 98.7% and 100.0% and 103.3% and 101.1% and 101.4%
same,Weight development (%),[3]; day 24,105.1% and 103.0% and 100.0% and 101.8% and 100.4% and 101.1%
same,Weight development (%),[3]; day 26,106.4% and 100.8% and 101.7% and 102.2% and 101.5% and 100.4% and 101.1%
same,Weight development (%),[3]; day 28,106.8% and 103.4% and 100.9% and 101.3% and 103.7% and 100.7% and 101.1%
same,Weight development (%),[3]; day 30,110.3% and 105.1% and 101.7% and 105.3% and 101.5% and 100.7% and 101.1%
same,Weight development (%),[3]; day 32,106.0% and 105.5% and 102.6% and 102.2% and 102.9% and 101.4%
same,Weight development (%),[3]; day 34,106.8% and 104.7% and 100.9% and 103.5% and 106.2% and 101.1% and 100.4%
same,Weight development (%),[3]; day 36,108.1% and 103.8% and 103.9% and 105.7% and 107.0% and 99.6% and 100.0%
same,Weight development (%),[3]; day 38,109.8% and 107.2% and 103.0% and 106.1% and 109.9% and 100.7% and 101.4%
same,Weight development (%),[3]; day 40,110.3% and 103.4% and 103.0% and 106.6% and 100.7% and 99.3%
same,Weight development (%),[3]; day 42,109.4% and 106.4%
same,body weight over time (in words),"[3]; mouse, in vivo",did not lose body weight
same,Survival (d of treatment),"KMP liver metastasis; individual mice, KMP liver metastasis, treatment started 1 week after transplantation",42 days and 50 days and 29 days and 31 days and 35 days and 44 days
same,Kaplan–Meier event entry in 2015 (1 or 0),"KMP liver metastasis; individual mice, KMP liver metastasis, meaning of 1/0 not given",1 and 0
same,survival of mice with KMP liver metastasis (in words),KMP liver metastasis; long-term treatment,significantly prolonged survival
same,therapeutic effect in KMP organoids (in words),KMP organoids,increased responsiveness
same,Cell viability (%),KMP organoids; [5],17.63% and 7.81% and 29.91%
same,Cell viability (%),"KMP organoids; Fig. 2i, 0,25 µM, replicates",27.91% and 21.06%
same,Cell viability (%),"KMP organoids; Fig. 2i, 1 µM, replicates",17.15% and 26.00%
same,viability at 1 µM,KMP organoids; [6],27.8%
same,Cell viability,[4],58.51% and 44.25% and 42.17%
same,therapeutic effect in BAP organoids (in words),BAP organoids,increased responsiveness
same,Cell viability (%),BAP organoids; [7],18.53% and 25.34%
same,Cell viability (%),"BAP organoids; Fig. 2j, 0,25 µM, replicates",71.10% and 78.07% and 119.22%
same,Cell viability (%),"BAP organoids; Fig. 2j, 1 µM, replicates",28.06% and 32.78%
same,viability at 5 µM,"BAP organoids; Mus musculus, Fig. 2j, 0,5 µM, replicates",21.1%
same,viability at 1 µM,"BAP organoids; Mus musculus, Fig. 2j, 1 µM, replicates",29.7%
same,DNA content (in words),KAP^2D cells,strong induction of aneuploidy and polyploidy
